# Results as given in article PMC9229894, “In Silico, In Vitro, and Pharmacokinetic Studies of UBMC-4, a Potential Novel Compound for Treating against Trypanosoma cruzi” (Pathogens, 2022).
# Where two headings read alike, the source gives them in different places.
# Tests used:
# [1] = Cytotoxicity, MTT method, CaCo2; type: cell-based; settings: human, Caco-2, read-out: LC50 median lethal concentration CaCo2
# Experimental: Cytotoxicity of UBMC-4 was tested in HepG2, CaCo2, and huMDM cell lines according to the effect on cell growth determined by the MTT microenzimatic method, as described by others. Briefly, 2.0 × 10^4 U-937 and huMDM or 2.5 × 10^4 HepG2 and CaCo2 cells were dispensed in 200 µL into each well of a 96-well tissue culture plate containing the corresponding culture medium. Then, 100 µL/well of each compound at a concentration of […] were added and plates were incubated at 37 °C, 5% CO2. After 72 h of incubation, 20 μL of MTT (Sigma-Aldrich, St Louis, MO, USA) were added to each well and plates were incubated for 3 h at 37 °C, 5% CO2. […] The concentration of formazan was determined at 570 nm in a spectrophotometer (Varioskan Flash Multimode Reader, Thermo Scientific, Waltham, MA, USA). […] Cytotoxicity was determined according to the percentages of viability and cell growth inhibition obtained for each compound, bz, doxorubicin, or medium alone. Non-specific absorbance was corrected by subtracting the OD of the blank (culture medium). Percentages of mortality were calculated using equation, as follows: % mortality = 100 − [(O.D. of treated cells)/(O.D. of non-treated cells)] × 100. The half maximal effective concentration (EC50) was calculated by the linear regression model Probit using Graphpad Prism software.
# [2] = Toxicity / tolerability in mice; type: in vivo
# [3] = system: T. cruzi epimastigotes; assay: Intracellular ROS production in epimastigotes (H2DCFDA); type: cell-based, Trypanosoma cruzi; settings: 10 µM, 24 h
# Experimental: A total of 1.4 × 10^6 epimastigotes grown under normal and stress nutritional conditions were treated with 10 µM UBMC-4 for 24 h and the intracellular ROS concentration was determined by fluorometric testing with the diacetate 2′,7′-dichlorodihydrofluorescein (H2DCFDA) probe at 0.2 µg/mL. As controls, cell cultures both treated with no probe as well as only labeled with H2DCFDA were performed to determine baseline fluorescence. A ROS-production positive control was set up by challenging parasites with […] rotenone (a ROS inducer) for 1 h prior to labeling and reading. After the treatment, parasites were washed and resuspended in 100 µL of the H2DCFDA-containing solution, transferred to 96-well plates protected from the light, and then incubated for 1 h at 37 °C. The test readout was collected using an ELISA plate reader at an excitation wavelength of 495 nm and emission wavelength of 527 nm, respectively. Each treatment was performed in triplicate, and data were reported in arbitrary units of fluorescence.
# [4] = system: T. cruzi Tulahuen strain amastigotes; assay: Trypanocidal activity in intracellular amastigotes (β-galactosidase, U937 macrophages); type: cell-based, Trypanosoma cruzi; settings: Trypanosoma cruzi
# Experimental: To obtain intracellular amastigotes, 2.5 × 10^6 U937 differentiated macrophage cells were infected with T. cruzi epimastigotes (Tulahuen strain producing β-galactosidase, 24 h of growing) in a 5:1 parasite/cell ratio. To calculate EC50, 100 μL of UBMC-4 were added at four serial dilutions ([…]) to each well, and benznidazole (bz) was added at an initial concentration of 20 µg/mL and 6 serial 2-fold dilutions were used to determine its EC50 as a control of the effectiveness of the experiment, in addition to the control of the viability of the parasites (cells without drug treatment), from the blank of the culture medium (medium without cells), in duplicate. The cells were incubated for 72 h at 37 °C with 5% of CO2. All medium was removed and 100 µL of substrate for β-galactosidase diluted in PBS (chlorophenol β-d-galactopyranoside-CPRG network; Sigma-Aldrich, St Louis, MO, USA, at 100 mM and 0.1% Nonidet P-40) was added to each well and incubated at 37 °C for 3 h. The amount of chlorophenol red released was read at 570 nm in a spectrophotometer (Varioskan TM). Infected cells were used as negative control while infected cells treated with benznidazole were used as a positive control (trypanocidal activity) for the assay. RPMI-1640 medium was used as a negative control. Non-specific absorbance was corrected by subtracting the OD of the blank sample. Determinations were done in triplicate in at least two independent experiments.
# The trypanocidal activity was determined based on the percentage of decrease of amastigotes determined using equation, as follows: % reduction of infection = 100 − (O.D. of treated infected cells)/(O.D. of non-treated infected cells) × 100. The half maximal effective concentration (EC50) was calculated by the linear regression model Probit using Graphpad Prism software.
structure (smiles),measurement,setting,value
"Oc1ccc(-c2nc(-c3ccc4sc5ccccc5c4c3)c(-c3ccccc3)[nH]2)cc1 [UBMC-4, 4-(4-dibenzo-[b,d]-thien-2-yl-5-phenyl-1H-imidazol-2-yl)phenol]",CC50 at 72 h,[1],> 40000 nM
same,tolerability in preliminary toxicity study,[2]; 200 mg/kg administered once and 100 mg/kg every 24 h for 30 days,significant tolerability
same,acute toxicity,"[2]; mice of the pharmacokinetic assay, 200 mg/kg oral single dose",did not exhibit acute toxicity
same,death of mice,"[2]; mouse, in vivo, po, 200 mg/kg",did not cause death to any of the mice
same,"intracellular ROS concentration, treated vs untreated",[3]; normal nutritional conditions,No significant differences
same,intracellular ROS concentration compared to untreated parasites,[3]; nutritional stress,twofold ROS concentration
same,EC50,"[4]; TULAHUEN, U-937, 72 h, read-out: EC50 half maximal effective concentration for T. cruzi amastigotes",1850 ± 1000 nM
same,EC50,"[4]; U-937, intracellular amastigotes, Tulahuen strain, same value in mass units, read-out: EC50 for T. cruzi amastigotes",0.774 µg/mL
